{
  "source": "patent US8652536B2",
  "about": "“Skin clarifying complex, use of said complex, cosmestic or pharmaceutical composition comprising said complex and method for application thereof” (Natura Cosmeticos S.A., priority 2009, dated 2014)",
  "format_in_all_cases": "cell-based",
  "key": {"line B16 melanocytes": {"system": "line B16 melanocytes", "test": "cells", "details": "for amount of melanin, % control: vs Control DMSO", "experimental": "The assay methodology for the test lasted for five days in which, initially, line B16 melanocytes were plated on 12 well-conditioned containers, at a rate of 75,000 cells/plate.\nOn the three following days, 10mg (11 μl to linoleic acid) of component in the mixture were diluted in 100 μl of DMSO (dimethyl-sulfoxide) and, then, 9.9 ml of DMEM (culture medium) serum free were added so as to finally obtain 1 mg/ml of stock solution.\nSequentially, these solutions were incubated at 37° C. to assist solubilization of the samples. 10% bovine fetal serum (BFS) were added to the final dilution.\nThe actives are: gallic acid and linoleic acid.\nOn day five of the test the cells were divided into two steps of characterization: • Assessment of melanin in which the cells were first “washed” with PBS and then the cellular layer was dissolved into 500 μl of 3N NaOH and the suspension homogenized by pipetting. Two 200 μl portions of suspension were plated for optical reading at 400 nm."}, "[1]": {"system": "culture medium corresponding to the epidermis", "test": "Melanin extracted from epidermis culture after 6 days of treatment", "details": "6 days treatment, kojic acid 250 μM, A 25 μg/ml, B 75 μg/ml, A + B 25 + 75 μg/ml; for melanin extracted from epidermis, Mean (%): % of control; for Reduction (%) of melanin extracted from epidermis: vs control", "experimental": "In another example samples containing an extract of Brazilian […] extract (A), linoleic acid (B) and a mixture of the active ingredients linoleic acid and gallic acid (A+B), respectively, were compared to a control and to kojic acid as far as the reduction of the amount of melanin is concerned. Each sample was applied to a culture medium corresponding to the epidermis and the concentrations of melanin were measured after 6 days of treatment."}, "3T3 cells [2]": {"system": "3T3 cells", "test": "Cytotoxicity assay, Neutral Red, 24 hours incubation"}, "3T3 cells [3]": {"system": "3T3 cells", "test": "Phototoxicity test, Neutral Red capture with and without UVA radiation", "details": "with and without non-cytotoxic dose of UVA", "experimental": "Cytotoxicity assay allows determining the cytotoxic concentration of an active, when 3T3 cells are incubated therewith for 24 hours. Toxicity is determined as a function of cell viability, monitored by incubation of 3T3 cells with Neutral Red, and essential dye incorporated by living cells 24 hours 24 hours after contacting the active. Such assessment uses methodologies established by the National Institute of Health (NIH), USA, acknowledged internationally (Guidance NIH, 2001). The phototoxicity test is based on a comparison of the toxicity of an active in the presence and absence of a non-cytotoxic dose of UVA radiation. Phototoxicity is measured by Neutral Red capture by those cells surviving incubation with the active, according to a protocol already established and standardized by COLIPA and OECD (ZEBET/ECVAM/COLIPA, 1998; OECD, 2004). Phototoxicity/photoirritation is defined as the toxic response caused after a first exposure of the skin to certain products/actives and the subsequent exposure to sun light or induced by an irradiation of the skin after systemic administration of an active/product."}},
  "data": [
    {"smiles": "OC[C@H]1O[C@@H](Oc2ccc(O)cc2)[C@H](O)[C@@H](O)[C@@H]1O", "note": "[Arbutin, reference compound]", "values": [
      {"measurement": "melanin synthesis, % control", "setting": "line B16 melanocytes; comparison with pharmaceutical and market actives at the same concentration, printed 0.01 mg/ml, α-MSH, FIG. 4", "value": 82.5, "unit": "% control"}
    ]},
    {"smiles": "O=c1cc(CO)occ1O", "note": "[Kojic acid, reference compound]", "values": [
      {"measurement": "melanin extracted from epidermis, Mean (%)", "setting": "[1]", "value": 78.98, "unit": "%"},
      {"measurement": "melanin extracted from epidermis, Mean", "setting": "[1]", "value": 20.95, "unit": "µg/mL"},
      {"measurement": "Reduction (%) of melanin extracted from epidermis", "setting": "[1]", "value": 21.02, "unit": "%"},
      {"measurement": "Reduction (%) of melanin extracted from epidermis", "setting": "[1]; listed as kojic acid", "value": "about 21.02%"}
    ]},
    {"smiles": "CCCCC/C=C\\C/C=C\\CCCCCCCC(=O)O", "note": "[linoleic acid]", "values": [
      {"measurement": "inhibition at 25 µg/mL", "setting": "line B16 melanocytes; Melanocyte, active alone at 0.025 mg/ml (its concentration in the mixture), read-out: inhibition of melanin by active alone", "value": 8.1, "unit": "%"},
      {"measurement": "inhibition at 50 µg/mL", "setting": "line B16 melanocytes; Melanocyte, active alone at 0.05 mg/ml (its concentration in the mixture), read-out: inhibition of melanin by active alone", "value": 15.9, "unit": "%"},
      {"measurement": "inhibition at 75 µg/mL", "setting": "line B16 melanocytes; Melanocyte, active alone at 0.075 mg/ml (its concentration in the mixture), read-out: inhibition of melanin by active alone", "value": 19, "unit": "%"},
      {"measurement": "amount of melanin, % control", "setting": "line B16 melanocytes; active alone at 0.025 mg/ml, α-MSH", "value": 91.9, "unit": "% control"},
      {"measurement": "amount of melanin, % control", "setting": "line B16 melanocytes; active alone at 0.05 mg/ml, α-MSH", "value": 84.1, "unit": "% control"},
      {"measurement": "amount of melanin, % control", "setting": "line B16 melanocytes; active alone at 0.075 mg/ml, α-MSH", "value": 81.0, "unit": "% control"},
      {"measurement": "Cytotoxicity", "setting": "3T3 cells [2]", "value": "Not cytotoxic"},
      {"measurement": "melanin extracted from epidermis, Mean (%)", "setting": "[1]", "value": 80.67, "unit": "%"},
      {"measurement": "melanin extracted from epidermis, Mean", "setting": "[1]", "value": 21.4, "unit": "µg/mL"},
      {"measurement": "Reduction (%) of melanin extracted from epidermis", "setting": "[1]; listed as B", "value": 19.33, "unit": "%"},
      {"measurement": "Reduction (%) of melanin extracted from epidermis", "setting": "[1]; listed as sample B", "value": 19.3, "unit": "%"},
      {"measurement": "Phototoxicity", "setting": "3T3 cells [3]", "value": "Not phototoxic"}
    ]}
  ]
}
